Read-outs that look alike come from different tables or passages of the source.
Assays:
PC-3 cells [1] = test: Preliminary in vitro TNF-α induction, PC-3 cells; format: cell-based, human; conditions: vector treated PC-3 cells (100 MOI), 24 hrs; cisplatin 250 μM, doxorubicin 3 μM, 5-FU 20 mM, paclitaxel 14 μM
Experimental: (§1) In vitro measurement of TNF-α protein. PC-3 and PROb cells were plated in 96-well plates, grown overnight, and infected with Ad.Egr.TNF at 100 multiplicities of infection, incubated for three hrs, and were then treated with cisplatin (250 μM), doxorubicin (3 μM), 5-FU (20 mM) or paclitaxel (14 μM). Supernatants were harvested 24 hrs later and human TNF-α production was quantified by ELISA. Experiments were performed in quintuplicate.

PC-3 xenografts [2] = format: in vivo, athymic nude mice; conditions: vector + IP agent days 1 and 2, cisplatin 9, cyclophosphamide 160, doxorubicin 15, 5-FU 100, gemcitabine 500 mg/kg
Experimental: (§2) Saline or chemotherapeutic agents administered IP on days 1 and 2, including 9 mg/kg cisplatin, 160 mg/kg cyclophosphamide, 15 mg/kg doxorubicin, 100 mg/kg 5-FU and 500 mg/kg gemcitabine. Animals were euthanized, and xenografts were harvested 24 hrs after the second IP injection. Xenografts were snap-frozen in liquid nitrogen and homogenized in RIPA buffer (150 mM NaCl, 10 mM Tris pH 7.5, 5 mM EDTA pH 7.5, 100 mM PMSF, 1 µg/ml leupeptin and 2 μg/ml aprotinin) using a Brinkman Polytron homogenizer (Kinematica AG, Lucerne, Switzerland). After three freeze-thaw lysis cycles, the homogenate was centrifuged at 7800×g in a Sorvall RC-5C SS34 rotor (Kendro Laboratory Products, Newtown, Conn.) for 10 min at 4° C. TNF-α levels in the supernatants were measured by ELISA as described above.

PROb xenografts [3] = format: in vivo, nude mice; conditions: IT vector 5×10^9 p.u. + IP agent vs vector plus NS, cisplatin 9, cyclophosphamide 160, doxorubicin 15, 5-FU 100, gemcitabine 500 mg/kg
Experimental: (§3) In vivo measurement of TNF-α protein. PC-3 (1×10^7 cells) or PROb cells (5×10^6) in 100 μl PBS were injected subcutaneously into the right hind limb of nude mice. Tumor-bearing mice received IT Ad.Egr.TNF (5×10^9 p.u. in 10 μl) with 250 μl of complete media with NS or a chemotherapeutic agent, including cisplatin (9 mg/kg), cyclophosphamide (160 mg/kg), doxorubicin (15 mg/kg), 5-fluorouracil (100 mg/kg) and gemcitabine (500 mg/kg). Each mouse IP injections were administered 20 hrs after transfection, and two consecutive IT and IP injections were given. Animals were euthanized, and xenografts were harvested 48 hrs after the second IP injection. Xenografts were snap-frozen in liquid nitrogen and homogenized in RIPA buffer (150 mM NaCl, 10 mM Tris at pH 7.5, 5 mM EDTA at pH 7.5, 100 mM PMSF, 1 μg/ml leupeptin and 2 μg/ml aprotinin). After three freeze-thaw lysis cycles, the homogenate was centrifuged for 10 minutes at 4° C. TNF-α levels in the supernatants were measured as described above.

PC-3 xenografts [4] = format: in vivo, nude mice; conditions: IT vector 5×10^9 p.u. + IP agent vs vector and NS, cisplatin 9, cyclophosphamide 160, doxorubicin 15, 5-FU 100 mg/kg
Experimental: as §3

PROb cells [5] = test: Preliminary in vitro TNF-α induction, PROb cells; format: cell-based, rat; conditions: PROb cells treated with Ad.TNF (100 MOI), 24 hrs; cisplatin 250 μM, doxorubicin 3 μM, 5-FU 20 mM, paclitaxel 14 μM
Experimental: as §1

PROb xenografts [6] = conditions: for induction of TNF-α protein: PROb xenografts, vector + IP agent vs vector alone, cisplatin 9, cyclophosphamide 160, doxorubicin 15, 5-FU 100, gemcitabine 500 mg/kg
Experimental: as §2

PC-3 cells [7] = test: Chemo-sensitivity by MTS assay, PC-3 cells; format: cell-based, human; conditions: PC-3, Ad.Egr-TNF.11D and chemotherapy 24 hrs
Experimental: (§4) Chemo-sensitivity of PC-3 and PROb cells as determined by MTS assay. PC-3 and PROb cells were plated at a density of 10^5 cells/100 μl medium in 96-well tissue culture plates and incubated overnight. […] After incubation, 200 μl of complete media, with or without chemotherapeutic agents, was added. Chemotherapeutic agents used were at final concentrations of cisplatin at 46 and 460 μM, doxorubicin at 3 and 300 μM, 5-fluorouracil at 2 and 200 mM and paclitaxel at 1.4 and 140 μM. Media was removed 24 hrs later and each well was rinsed with 200 μl of complete media (CM) and aspirated. 100 μl of CM was then added with 20 μl of CellTiter 96® Aqueous One Solution Cell Proliferation Assay solution (Promega, Madison, Wis.), and the cells were allowed to incubate for 1 hr. Absorbance was measured at 490-650 nm.

PROb cells [8] = test: Chemo-inducibility of Ad.Egr-TNF.11D in vitro, PROb cells; format: cell-based, rat
Experimental: (§5) PC-3 and PROb cells were plated, infected with Ad.Egr.TNF, and incubated as discussed above. After incubation, 200 μl of CM, with or without chemotherapeutic agents, including cisplatin (250 μM), doxorubicin (3 μM), 5-fluorouracil (100 mM), gemcitabine (3 mM) and paclitaxel (14 μM) were added. Conditioned medium was harvested 24 hrs. later, and TNF-α concentration was measured (Quantikine Human TNF-α ELISA kit, R & D Systems, Minneapolis, Minn.).

PC-3 cells [9] = test: Chemo-inducibility of Ad.Egr-TNF.11D in vitro, PC-3 cells
Experimental: as §5

PROb cells [10] = test: Chemo-sensitivity by MTS assay, PROb cells; format: cell-based, rat; conditions: Ad.Egr-TNF.11D and chemotherapy 24 hrs
Experimental: as §4

PROb cells [11] = test: N-acetyl cysteine effects on TNF-α production in vitro, PROb cells; format: cell-based, rat
Experimental: (§6) N-acetyl cysteine effects on TNF-α production in vitro. PC-3 and PROb cells were plated and infected with Ad.Egr-TNF.11D as described above. PC-3 and PROb cells were treated with NAC at 0 mM, 10 mM, 20 mM and 30 mM, followed immediately by the addition of 100 mM 5-FU. Conditioned medium was collected after 24 hrs of incubation at 37° C. and stored at −20° C. TNF-α levels were determined by ELISA.
(§7) PC-3 and PROb cells were plated and infected with Ad.Egr-TNF.11D as above. Prior to the addition of chemotherapeutic agents (cisplatin, doxorubicin, 5-FU, gemcitabine and paclitaxel), 20 mM NAC in 0.1 ml complete medium was added to each well. Conditioned medium was collected after 24 hrs. of incubation at 37° C., and stored at −20° C. TNF-α levels were determined by ELISA.

PC-3 cells [12] = test: N-acetyl cysteine effects on TNF-α production in vitro, PC-3 cells; format: cell-based, human
Experimental: as §6, §7

Egr-1 promoter [13] = test: In vitro luciferase reporter assay, Seg-1 cells; format: cell-based, human
Experimental: (§8) In vitro luciferase reporter assay. […] JM109 competent cells (Stratagene, La Jolla, Calif.) were transformed with these plasmids, endotoxin-free maxipreps (Qiagen, Valencia, Calif.) were prepared, and product confirmation was performed by PCR, sequencing, enzyme restriction, and gel electrophoresis.
(§9) All groups were co-transfected with the Renilla luciferase reporter plasmid construct pRL-TK (HSV thymidine kinase promoter) to normalize for transfection efficiency. […] Cells were harvested 6 hrs later, and luciferase activity was measured using the Dual-Luciferase reporter assay system (Promega).

Seg-1 xenografts = test: In vivo regrowth study, Seg-1 xenografts; parameters: species or system athymic nude mice; conditions: IT vector 2×10^8 p.u., IP cisplatin 3 mg/kg, 4 daily injections, cisplatin line = with null vector
Experimental: (§10) In vivo regrowth studies. Seg-1 or PROb cells (5×10^6/0.1 ml) were injected in the right hind limb of nude mice. […] IP NS or cisplatin injections were given following the IT vector injection, and 4 consecutive daily IT and IP injections were given. Xenografts were measured every 2 days using calipers and tumor volume was calculated (length×width×thickness)/2. Fractional tumor volumes (V/Vo, Vo=day 0 volume) were calculated and plotted.

Egr-1 promoter [14] = test: In vitro luciferase reporter assay, PROb cells; format: cell-based, rat
Experimental: as §8, §9

PROb xenografts [15] = test: In vivo regrowth study, PROb xenografts; parameters: species or system athymic nude mice; conditions: IT vector 2×10^8 p.u., IP cisplatin 3 mg/kg, 4 daily injections, cisplatin line = with null vector
Experimental: as §10

[16] = higher concentration: cisplatin 460 μM, doxorubicin 300 μM, 5-FU 200 mM, taxol 140 μM
[17] = lower concentration: cisplatin 46 μM, doxorubicin 3 μM, 5-FU 2 mM, taxol 1.4 μM
[18] = vector-infected PROb cells, 24 hrs, cisplatin 250 μM, doxorubicin 3 μM, 5-FU 100 mM, gemcitabine 3 mM, paclitaxel 14 μM
[19] = vector-infected PC-3 cells, 24 hrs, cisplatin 250 μM, 5-FU 100 mM, gemcitabine 3 mM, paclitaxel 14 μM

## O=c1[nH]cc(F)c(=O)[nH]1 [5-FU, 5-fluorouracil]
PC-3 cells [1]
  increased TNF levels: 1.8 fold
PC-3 xenografts [2]
  increase in TNF-α levels: 4.4 fold
PROb xenografts [3]
  increased TNF-α levels: 1.9 fold
PC-3 xenografts [4]
  induced TNF-α: 4.2 fold
PROb cells [5]
  increased TNF levels: 2.3 fold
PROb xenografts [6]
  induction of TNF-α protein: 1.9 fold
PC-3 cells [7]; [16]
  surviving fraction: 20%
PC-3 cells [7]; [17]
  surviving fraction: 80%
PROb cells [8]; [18]
  increase in TNF-α levels: 1.7 fold
PC-3 cells [9]; [19]
  increase in TNF-α levels: 67.4 fold
PROb cells [10]; [16]
  surviving fraction: 38%
PROb cells [10]; [17]
  surviving fraction: 69%

## CC(=O)N[C@@H](CS)C(=O)O [NAC, N-Acetylcysteine]
PROb cells [11]; PROb cells treated with cisplatin, 5-FU, gemcitabine or paclitaxel (data not shown)
  effect on induction of TNF-α: significantly reduced the induction of TNF-α
PROb cells [11]; PROb cells, 3 μM doxorubicin, 20 mM NAC
  effect on induction of TNF-α: significantly reduced the induction of TNF-α
PC-3 cells [12]; Ad.Egr-TNF.11D transduced PC-3 cells treated with cisplatin, 5-FU, gemcitabine and paclitaxel, 20 mM NAC
  effect on concentration of TNF-α protein: significantly decreased the concentration of TNF-α protein
PC-3 cells [12]; PC-3 cells infected with Ad.Egr-TNF.11D and treated with 100 mM 5-FU, NAC 10 mM to 30 mM
  effect on concentration of TNF-α protein: decrease the concentration of TNF-α protein

## N.N.[Cl][Pt][Cl] [cisplatin]
Egr-1 promoter [13]; Seg-1 cells transfected with pGL3 425, 50 μM cisplatin
  LA: 2.89
Egr-1 promoter [13]; Seg-1 cells transfected with pGL3 425, 50 μM cisplatin vs untreated control
  increase in LA: 2.0 fold
PC-3 cells [1]
  increased TNF levels: 6.5 fold
PC-3 xenografts [2]
  increase in TNF-α levels: 3.1 fold
PROb xenografts [3]
  increased TNF-α levels: 1.9 fold
PC-3 xenografts [4]
  induced TNF-α: 3.5 fold
PROb cells [5]
  increased TNF levels: 1.6 fold
PROb xenografts [6]
  induction of TNF-α protein: 2.6 fold
PC-3 cells [7]; [16]
  surviving fraction: 60%
PC-3 cells [7]; [17]
  surviving fraction: 90%
PROb cells [8]
  increase in TNF-α levels: 1.3 fold
PC-3 cells [9]
  increase in TNF-α levels: 3.8 fold
PROb cells [10]; [16]
  surviving fraction: 77%
PROb cells [10]; [17]
  surviving fraction: 77%
Seg-1 xenografts
  tumor regression: moderate tumor regression
Egr-1 promoter [14]; PROb cells transfected with pGL3 425, 50 μM cisplatin
  LA: 49.40
Egr-1 promoter [14]; PROb cells transfected with pGL3 425, 50 μM cisplatin vs untreated control
  increase in LA: 3.6 fold
PROb xenografts [15]
  tumor regression: moderate tumor regression

## O=P1(N(CCCl)CCCl)NCCCO1 (centres unmarked) [cyclophosphamide, Cyclophosphamide]
PC-3 xenografts [2]
  increase in TNF-α levels: 4.4 fold
PROb xenografts [3]
  increased TNF-α levels: 2.8 fold
PC-3 xenografts [4]
  induced TNF-α: 4.4 fold
PROb xenografts [6]
  induction of TNF-α protein: 3.0 fold

## CC(=O)O[C@H]1C(=O)[C@@]2(C)[C@H]([C@H](OC(=O)c3ccccc3)[C@]3(O)C[C@H](OC(=O)[C@H](O)[C@@H](NC(=O)c4ccccc4)c4ccccc4)C(C)=C1C3(C)C)[C@]1(OC(C)=O)CO[C@@H]1C[C@@H]2O [paclitaxel, Paclitaxel]
PC-3 cells [1]
  increased TNF levels: 1.8 fold
PROb cells [5]
  increased TNF levels: 3.0 fold
PROb xenografts [6]; mouse, in vivo
  systemic toxicity: severe systemic toxicity
PC-3 cells [7]; [16]
  surviving fraction: 10%
PC-3 cells [7]; [17]
  surviving fraction: 80%
PROb cells [8]; [18]
  increase in TNF-α levels: 4.5 fold
PC-3 cells [9]; [19]
  increase in TNF-α levels: 1.7 fold
PROb cells [10]; [16]
  surviving fraction: 8%
PROb cells [10]; [17]
  surviving fraction: 85%

## Gemcitabine diphosphate
PC-3 xenografts [2]
  increase in TNF-α levels: 3.1 fold
PROb xenografts [3]
  increased TNF-α levels: 1.8 fold
PROb cells [5]
  increased TNF levels: 5.4 fold
PROb xenografts [6]
  induction of TNF-α protein: 2.5 fold
PROb cells [8]; [18]
  increase in TNF-α levels: 3.5 fold
PC-3 cells [9]; [19]
  increase in TNF-α levels: 2.7 fold

From patent publication US8034791B2, “Activation of Egr-1 promoter by DNA damaging chemotherapeutics” (The University of Chicago, priority 2001, dated 2011)
